From ChEMBL document CHEMBL1150275, “Pharmacological and pharmacokinetic characterization of 2-piperazine-alpha-isopropyl benzylamine derivatives as melanocortin-4 receptor antagonists” (Bioorg Med Chem, 2008)

tested on: not listed separately; assay: Drug level in mouse brain at 5 mg/kg, iv after 4 hrs; assay type: ADME, organism-based; design: dose 5 mg/kg, route intravenous; details: read-out: Drug uptake

| Compound | concentration at 4 h |
| --- | --- |
| CC(C)[C@H](NC(=O)C1CN(C)C1)c1cc(Cl)ccc1N1CCN(C(=O)[C@H](C)Cc2ccc(Cl)cc2)CC1 | 77 ng/g |
| COc1cc(Cl)ccc1C[C@@H](C)C(=O)N1CCN(c2ccc(Cl)cc2[C@@H](NC(=O)C2CNC2)C(C)C)CC1 | 39 ng/g |
| COc1cc(Cl)ccc1C[C@@H](C)C(=O)N1CCN(c2ccc(Cl)cc2[C@@H](NC(=O)[C@@H](C)N)C(C)C)CC1 | 59 ng/g |
| CNCC(=O)N[C@H](c1cc(C)ccc1N1CCN(C(=O)[C@H](C)Cc2ccc(Cl)cc2F)CC1)C(C)C | 42 ng/g |

tested on: not listed separately; assay: physchem; details: buffer, pH 7.4

| Compound | logD |
| --- | --- |
| CC(C)[C@H](NC(=O)C1CN(C)C1)c1cc(Cl)ccc1N1CCN(C(=O)[C@H](C)Cc2ccc(Cl)cc2)CC1 | 3 |
| COc1cc(Cl)ccc1C[C@@H](C)C(=O)N1CCN(c2ccc(Cl)cc2[C@@H](NC(=O)C2CNC2)C(C)C)CC1 | 2.3 |
| COc1cc(Cl)ccc1C[C@@H](C)C(=O)N1CCN(c2ccc(Cl)cc2[C@@H](NC(=O)[C@@H](C)N)C(C)C)CC1 | 4.5 |
| CNCC(=O)N[C@H](c1cc(C)ccc1N1CCN(C(=O)[C@H](C)Cc2ccc(Cl)cc2F)CC1)C(C)C | 4 |

tested on: not listed separately; assay: AUC in mouse at 10 mg/kg, po; assay type: ADME, organism-based; design: dose 10 mg/kg, route oral; details: plasma

| Compound | AUC |
| --- | --- |
| CC(C)[C@H](NC(=O)C1CN(C)C1)c1cc(Cl)ccc1N1CCN(C(=O)[C@H](C)Cc2ccc(Cl)cc2)CC1 | 9160 ng·h/mL |
| COc1cc(Cl)ccc1C[C@@H](C)C(=O)N1CCN(c2ccc(Cl)cc2[C@@H](NC(=O)C2CNC2)C(C)C)CC1 | 422 ng·h/mL |
| COc1cc(Cl)ccc1C[C@@H](C)C(=O)N1CCN(c2ccc(Cl)cc2[C@@H](NC(=O)[C@@H](C)N)C(C)C)CC1 | 397 ng·h/mL |
| CNCC(=O)N[C@H](c1cc(C)ccc1N1CCN(C(=O)[C@H](C)Cc2ccc(Cl)cc2F)CC1)C(C)C | 2290 ng·h/mL |

tested on: not listed separately; assay: Tmax in mouse at 5 mg/kg, iv and 10 mg/kg, po; assay type: ADME, organism-based; details: in vivo

| Compound | Tmax |
| --- | --- |
| CC(C)[C@H](NC(=O)C1CN(C)C1)c1cc(Cl)ccc1N1CCN(C(=O)[C@H](C)Cc2ccc(Cl)cc2)CC1 | 6 h |
| COc1cc(Cl)ccc1C[C@@H](C)C(=O)N1CCN(c2ccc(Cl)cc2[C@@H](NC(=O)C2CNC2)C(C)C)CC1 | 2 h |
| COc1cc(Cl)ccc1C[C@@H](C)C(=O)N1CCN(c2ccc(Cl)cc2[C@@H](NC(=O)[C@@H](C)N)C(C)C)CC1 | 0.25 h |
| CNCC(=O)N[C@H](c1cc(C)ccc1N1CCN(C(=O)[C@H](C)Cc2ccc(Cl)cc2F)CC1)C(C)C | 2 h |

tested on: Caco-2; assay: Apparent permeability across human Caco-2 cells; assay type: ADME, cell-based; details: not given

| Compound | Papp |
| --- | --- |
| CC(C)[C@H](NC(=O)C1CN(C)C1)c1cc(Cl)ccc1N1CCN(C(=O)[C@H](C)Cc2ccc(Cl)cc2)CC1 | 2 ×10⁻⁶ cm/s |
| COc1cc(Cl)ccc1C[C@@H](C)C(=O)N1CCN(c2ccc(Cl)cc2[C@@H](NC(=O)C2CNC2)C(C)C)CC1 | 0.3 ×10⁻⁶ cm/s |
| COc1cc(Cl)ccc1C[C@@H](C)C(=O)N1CCN(c2ccc(Cl)cc2[C@@H](NC(=O)[C@@H](C)N)C(C)C)CC1 | 3 ×10⁻⁶ cm/s |
| CNCC(=O)N[C@H](c1cc(C)ccc1N1CCN(C(=O)[C@H](C)Cc2ccc(Cl)cc2F)CC1)C(C)C | 8 ×10⁻⁶ cm/s |

tested on: not listed separately; assay: Ratio of drug level in brain to plasma in mouse at 5 mg/kg, iv after 4 hrs; assay type: ADME, organism-based; design: dose 5 mg/kg, route intravenous; details: not given

| Compound | Kp at 4 h |
| --- | --- |
| CC(C)[C@H](NC(=O)C1CN(C)C1)c1cc(Cl)ccc1N1CCN(C(=O)[C@H](C)Cc2ccc(Cl)cc2)CC1 | 0.1 |
| COc1cc(Cl)ccc1C[C@@H](C)C(=O)N1CCN(c2ccc(Cl)cc2[C@@H](NC(=O)C2CNC2)C(C)C)CC1 | 0.4 |
| COc1cc(Cl)ccc1C[C@@H](C)C(=O)N1CCN(c2ccc(Cl)cc2[C@@H](NC(=O)[C@@H](C)N)C(C)C)CC1 | 1 |
| CNCC(=O)N[C@H](c1cc(C)ccc1N1CCN(C(=O)[C@H](C)Cc2ccc(Cl)cc2F)CC1)C(C)C | 0.2 |

tested on: not listed separately; assay: Volume of distribution in mouse at 5 mg/kg, iv and 10 mg/kg, po; assay type: ADME, organism-based; details: in vivo

| Compound | Vd |
| --- | --- |
| CC(C)[C@H](NC(=O)C1CN(C)C1)c1cc(Cl)ccc1N1CCN(C(=O)[C@H](C)Cc2ccc(Cl)cc2)CC1 | 3 L/kg |
| COc1cc(Cl)ccc1C[C@@H](C)C(=O)N1CCN(c2ccc(Cl)cc2[C@@H](NC(=O)C2CNC2)C(C)C)CC1 | 8.2 L/kg |
| COc1cc(Cl)ccc1C[C@@H](C)C(=O)N1CCN(c2ccc(Cl)cc2[C@@H](NC(=O)[C@@H](C)N)C(C)C)CC1 | 16 L/kg |
| CNCC(=O)N[C@H](c1cc(C)ccc1N1CCN(C(=O)[C@H](C)Cc2ccc(Cl)cc2F)CC1)C(C)C | 3 L/kg |

tested on: not listed separately; assay: Oral bioavailability in mouse at 10 mg/kg; assay type: ADME, organism-based; details: in vivo

| Compound | bioavailability |
| --- | --- |
| CC(C)[C@H](NC(=O)C1CN(C)C1)c1cc(Cl)ccc1N1CCN(C(=O)[C@H](C)Cc2ccc(Cl)cc2)CC1 | 58% |
| COc1cc(Cl)ccc1C[C@@H](C)C(=O)N1CCN(c2ccc(Cl)cc2[C@@H](NC(=O)C2CNC2)C(C)C)CC1 | 5.8% |
| COc1cc(Cl)ccc1C[C@@H](C)C(=O)N1CCN(c2ccc(Cl)cc2[C@@H](NC(=O)[C@@H](C)N)C(C)C)CC1 | 16% |
| CNCC(=O)N[C@H](c1cc(C)ccc1N1CCN(C(=O)[C@H](C)Cc2ccc(Cl)cc2F)CC1)C(C)C | 30% |

tested on: not listed separately; assay: Ratio of drug level in brain to plasma in mouse at 5 mg/kg, iv after 1 hr; assay type: ADME, organism-based; design: dose 5 mg/kg, route intravenous; details: not given

| Compound | Kp at 1 h |
| --- | --- |
| CC(C)[C@H](NC(=O)C1CN(C)C1)c1cc(Cl)ccc1N1CCN(C(=O)[C@H](C)Cc2ccc(Cl)cc2)CC1 | 0.1 |
| COc1cc(Cl)ccc1C[C@@H](C)C(=O)N1CCN(c2ccc(Cl)cc2[C@@H](NC(=O)C2CNC2)C(C)C)CC1 | 0.1 |
| COc1cc(Cl)ccc1C[C@@H](C)C(=O)N1CCN(c2ccc(Cl)cc2[C@@H](NC(=O)[C@@H](C)N)C(C)C)CC1 | 0.4 |
| CNCC(=O)N[C@H](c1cc(C)ccc1N1CCN(C(=O)[C@H](C)Cc2ccc(Cl)cc2F)CC1)C(C)C | 0.1 |

tested on: not listed separately; assay: Cmax in mouse at 5 mg/kg, iv and 10 mg/kg, po; assay type: ADME, organism-based; details: in vivo

| Compound | Cmax |
| --- | --- |
| CC(C)[C@H](NC(=O)C1CN(C)C1)c1cc(Cl)ccc1N1CCN(C(=O)[C@H](C)Cc2ccc(Cl)cc2)CC1 | 762 ng/mL |
| COc1cc(Cl)ccc1C[C@@H](C)C(=O)N1CCN(c2ccc(Cl)cc2[C@@H](NC(=O)C2CNC2)C(C)C)CC1 | 151 ng/mL |
| COc1cc(Cl)ccc1C[C@@H](C)C(=O)N1CCN(c2ccc(Cl)cc2[C@@H](NC(=O)[C@@H](C)N)C(C)C)CC1 | 143 ng/mL |
| CNCC(=O)N[C@H](c1cc(C)ccc1N1CCN(C(=O)[C@H](C)Cc2ccc(Cl)cc2F)CC1)C(C)C | 632 ng/mL |

tested on: not listed separately; assay: Drug level in mouse brain at 5 mg/kg, iv after 1 hr; assay type: ADME, organism-based; design: dose 5 mg/kg, route intravenous; details: read-out: Drug uptake

| Compound | concentration at 1 h |
| --- | --- |
| CC(C)[C@H](NC(=O)C1CN(C)C1)c1cc(Cl)ccc1N1CCN(C(=O)[C@H](C)Cc2ccc(Cl)cc2)CC1 | 79 ng/g |
| COc1cc(Cl)ccc1C[C@@H](C)C(=O)N1CCN(c2ccc(Cl)cc2[C@@H](NC(=O)C2CNC2)C(C)C)CC1 | 61 ng/g |
| COc1cc(Cl)ccc1C[C@@H](C)C(=O)N1CCN(c2ccc(Cl)cc2[C@@H](NC(=O)[C@@H](C)N)C(C)C)CC1 | 95 ng/g |
| CNCC(=O)N[C@H](c1cc(C)ccc1N1CCN(C(=O)[C@H](C)Cc2ccc(Cl)cc2F)CC1)C(C)C | 59 ng/g |
